Data as given in patent US9050312B2, “Strontium compound for treatment of sub-dermal soft tissue pain” (SANTOSOLVE AS, priority 2001, dated 2015).

Tested on: severe pain in the neck and shoulders
Assay: Clinical testing: severe pain in the neck and shoulders after a car accident
Format: in vivo, human
Settings: person; had not slept continuously any night since the accident
Source text: A person was involved in a car accident seven years earlier and had developed severe pain in the neck and shoulders. The patient had used non-steroidal anti-inflammatory drugs for a long time without significant effect. They had not slept continuously any night since the accident.
The patient tried the composition of Example 19 by administering topically to the areas of pain. They claimed a pain relieving effect after one minute and had no or very little pain for the following 2 to 3 days. After administration of the composition of Example 13 they were able to sleep for about 10 hours each of the next two nights.

CNCC(O)C(O)C(O)C(O)CO.CNCC(O)C(O)C(O)C(O)CO.O=C([O-])CN(CCN(CC(=O)O)CC(=O)O)CC(=O)[O-].[Sr+2] [Example 13, SrEDTA Dimeglumine Salt]
sleep each of the next two nights: about 10 hours
